Test results as given in patent publication US12599136B2, “Substituted isophthalic acid diamides and their use as herbicides” (Bayer Aktiengesellschaft, priority 2020, dated 2026).

What was measured:
Assay type in all cases: in vivo
Polygonum convolvulus [1] = assay: Post-emergence herbicidal action against POLCO; conditions: 20 g/ha, visual assessment about 3 weeks after treatment
Description: Seeds of monocotyledonous and dicotyledonous weed and crop plants are laid out in sandy loam soil in wood-fiber pots, covered with soil and cultivated in a greenhouse under good growth conditions. 2 to 3 weeks after sowing, the test plants are treated at the one-leaf stage. The compounds of the invention, formulated in the form of wettable powders (WP) or as emulsion concentrates (EC), are then sprayed onto the green parts of the plants in the form of an aqueous suspension or emulsion at a water application rate equivalent to 600 to 800 l/ha, with addition of 0.2% wetting agent. After the test plants have been left to stand in the greenhouse under optimal growth conditions for about 3 weeks, the action of the preparations is assessed visually in comparison to untreated controls (herbicidal action in percent (%): 100% activity=the plants have died, 0% activity=like control plants). […] The tables below illustrate, in an illustrative manner, the post-emergence herbicidal action of the compounds of the invention, the herbicidal activity being stated in percent.

Alopecurus myosuroides [2] = assay: Post-emergence herbicidal action against ALOMY
Summary of the method: (§1)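 Greenhouse pot plants in sandy loam were sprayed at the one-leaf stage, 2 to 3 weeks after sowing, with WP or EC formulations as aqueous suspension or emulsion (600 to 800 l/ha water, 0.2% wetting agent). About 3 weeks later, damage was scored visually against untreated controls as % action (100% = dead, 0% = like control).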

Matricaria inodora [3] = assay: Pre-emergence herbicidal action against MATIN; conditions: for Pre-emergence action against MATIN: visual score after 3 weeks vs untreated controls
Summary of the method: (§2)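 Visual rating at 3 weeks vs untreated pots; 0–100% scale, 100% = plants died. Treatment: aqueous WP/EC spray onto covering soil, 600–800 l/ha, 0.2% wetter, seeds in sandy loam.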

Pharbitis purpurea [4] = assay: Pre-emergence herbicidal action against PHBPU; conditions: 80 g/ha; visual score after 3 weeks vs untreated controls
Summary of the method: as §2

Alopecurus myosuroides [5] = assay: Pre-emergence herbicidal action against ALOMY; conditions: for Pre-emergence action against ALOMY: visual score after 3 weeks vs untreated controls
Summary of the method: as §2

Digitaria sanguinalis [6] = assay: Post-emergence herbicidal action against DIGSA
Summary of the method: as §1

Setaria viridis [7] = assay: Pre-emergence herbicidal action against SETVI
Summary of the method: as §2

Digitaria sanguinalis [8] = assay: Pre-emergence herbicidal action against DIGSA
Summary of the method: as §2

Setaria viridis [9] = assay: Post-emergence herbicidal action against SETVI; conditions: for Post-emergence action against SETVI in %: visual assessment about 3 weeks after treatment
Summary of the method: as §1

Amaranthus retroflexus [10] = assay: Post-emergence herbicidal action against AMARE; conditions: visual assessment about 3 weeks after treatment
Summary of the method: as §1

Echinochloa crus-galli [11] = assay: Post-emergence herbicidal action against ECHCG; conditions: visual assessment about 3 weeks after treatment
Summary of the method: as §1

Matricaria inodora [12] = assay: Post-emergence herbicidal action against MATIN; conditions: for Post-emergence action against MATIN in %: visual assessment about 3 weeks after treatment
Summary of the method: as §1

Avena fatua [13] = assay: Post-emergence herbicidal action against AVEFA; conditions: for Post-emergence action against AVEFA in %: visual assessment about 3 weeks after treatment
Summary of the method: as §1

Amaranthus retroflexus [14] = assay: Pre-emergence herbicidal action against AMARE; conditions: visual score after 3 weeks vs untreated controls
Summary of the method: as §2

Viola tricolor [15] = assay: Pre-emergence herbicidal action against VIOTR
Summary of the method: as §2

Echinochloa crus-galli [16] = assay: Pre-emergence herbicidal action against ECHCG; conditions: for Pre-emergence action against ECHCG: visual score after 3 weeks vs untreated controls
Summary of the method: as §2

Viola tricolor [17] = assay: Post-emergence herbicidal action against VIOTR
Summary of the method: as §1

Abutilon theophrasti [18] = assay: Pre-emergence herbicidal action against ABUTH; conditions: for Pre-emergence action against ABUTH: visual score after 3 weeks vs untreated controls
Summary of the method: as §2

Veronica persica [19] = assay: Pre-emergence herbicidal action against VERPE
Summary of the method: as §2

Veronica persica [20] = assay: Post-emergence herbicidal action against VERPE; conditions: visual assessment about 3 weeks after treatment
Summary of the method: as §1

Pharbitis purpurea [21] = assay: Post-emergence herbicidal action against PHBPU
Summary of the method: as §1

Abutilon theophrasti [22] = assay: Post-emergence herbicidal action against ABUTH
Summary of the method: as §1

Avena fatua [23] = assay: Pre-emergence herbicidal action against AVEFA; conditions: for Pre-emergence action against AVEFA: visual score after 3 weeks vs untreated controls
Summary of the method: as §2

Polygonum convolvulus [24] = assay: Pre-emergence herbicidal action against POLCO; conditions: 80 g/ha
Summary of the method: as §2

Lolium rigidum = assay: Pre-emergence herbicidal action against LOLRI; conditions: 80 g/ha
Summary of the method: as §2

[25] = comparative experiment, 5 g a.i./ha
[26] = comparative experiment, pre-emergence, 20 g a.i./ha

## CCN(C(=O)c1c(C(F)(F)F)ccc(C(=O)Nc2nnnn2CC)c1C)C1CC1 [Example 2-32]
Polygonum convolvulus [1]
  Post-emergence action against POLCO in %: 80%
Alopecurus myosuroides [2]; 5 g/ha
  Post-emergence action against ALOMY: 80%
Alopecurus myosuroides [2]; 20 g/ha
  Post-emergence action against ALOMY: 100%
Matricaria inodora [3]; 20 g/ha
  Pre-emergence action against MATIN: 80%
Matricaria inodora [3]; 80 g/ha
  Pre-emergence action against MATIN: 100%
Pharbitis purpurea [4]
  Pre-emergence action against PHBPU: 80%
Alopecurus myosuroides [5]; 80 g/ha
  Pre-emergence action against ALOMY: 90%
Digitaria sanguinalis [6]; 5 g/ha
  Post-emergence action against DIGSA in %: 90%
Digitaria sanguinalis [6]; 20 g/ha
  Post-emergence action against DIGSA in %: 90%
Setaria viridis [7]; 80 g/ha
  Pre-emergence action against SETVI: 100%
Digitaria sanguinalis [8]; 20 g/ha
  Pre-emergence action against DIGSA: 100%
Digitaria sanguinalis [8]; 80 g/ha
  Pre-emergence action against DIGSA: 100%
Setaria viridis [9]; 20 g/ha
  Post-emergence action against SETVI in %: 90%
Amaranthus retroflexus [10]; 5 g/ha
  Post-emergence action against AMARE in %: 100%
Amaranthus retroflexus [10]; 20 g/ha
  Post-emergence action against AMARE in %: 100%
Echinochloa crus-galli [11]; 5 g/ha
  Post-emergence action against ECHCG in %: 90%
Echinochloa crus-galli [11]; 20 g/ha
  Post-emergence action against ECHCG in %: 90%
Matricaria inodora [12]; 5 g/ha
  Post-emergence action against MATIN in %: 80%
Matricaria inodora [12]; 20 g/ha
  Post-emergence action against MATIN in %: 90%
Avena fatua [13]; 20 g/ha
  Post-emergence action against AVEFA in %: 80%
Amaranthus retroflexus [14]; 20 g/ha
  Pre-emergence action against AMARE: 100%
Amaranthus retroflexus [14]; 80 g/ha
  Pre-emergence action against AMARE: 100%
Viola tricolor [15]; 20 g/ha
  Pre-emergence action against VIOTR: 90%
Viola tricolor [15]; 80 g/ha
  Pre-emergence action against VIOTR: 100%
Echinochloa crus-galli [16]; 80 g/ha
  Pre-emergence action against ECHCG: 90%
Viola tricolor [17]; 5 g/ha
  Post-emergence action against VIOTR in %: 80%
Viola tricolor [17]; 20 g/ha
  Post-emergence action against VIOTR in %: 90%
Abutilon theophrasti [18]; 20 g/ha
  Pre-emergence action against ABUTH: 100%
Abutilon theophrasti [18]; 80 g/ha
  Pre-emergence action against ABUTH: 100%
Veronica persica [19]; 20 g/ha
  Pre-emergence action against VERPE: 90%
Veronica persica [19]; 80 g/ha
  Pre-emergence action against VERPE: 90%

## CCn1nnnc1NC(=O)c1ccc(C(F)F)c(C(=O)N(C)C)c1Cl [Example 2-154]
Polygonum convolvulus [1]
  Post-emergence action against POLCO in %: 90%
Alopecurus myosuroides [2]; 5 g/ha
  Post-emergence action against ALOMY: 90%
Alopecurus myosuroides [2]; 20 g/ha
  Post-emergence action against ALOMY: 90%
Alopecurus myosuroides [2]; [25]
  Herbicidal action against ALOMY: 90
Matricaria inodora [3]; 20 g/ha
  Pre-emergence action against MATIN: 90%
Matricaria inodora [3]; 80 g/ha
  Pre-emergence action against MATIN: 100%
Matricaria inodora [3]; [26]
  Herbicidal action against MATIN: 90
Pharbitis purpurea [4]
  Pre-emergence action against PHBPU: 80%
Alopecurus myosuroides [5]; 20 g/ha
  Pre-emergence action against ALOMY: 80%
Alopecurus myosuroides [5]; 80 g/ha
  Pre-emergence action against ALOMY: 100%
Alopecurus myosuroides [5]; [26]
  Herbicidal action against ALOMY: 80
Digitaria sanguinalis [6]; 5 g/ha
  Post-emergence action against DIGSA in %: 90%
Digitaria sanguinalis [6]; 20 g/ha
  Post-emergence action against DIGSA in %: 90%
Setaria viridis [7]; 20 g/ha
  Pre-emergence action against SETVI: 100%
Setaria viridis [7]; 80 g/ha
  Pre-emergence action against SETVI: 100%
Setaria viridis [7]; comparative experiment, 20 g a.i./ha
  Herbicidal action against SETVI: 100
Digitaria sanguinalis [8]; 20 g/ha
  Pre-emergence action against DIGSA: 100%
Digitaria sanguinalis [8]; 80 g/ha
  Pre-emergence action against DIGSA: 100%
Setaria viridis [9]; 5 g/ha
  Post-emergence action against SETVI in %: 90%
Setaria viridis [9]; 20 g/ha
  Post-emergence action against SETVI in %: 100%
Setaria viridis [9]; [25]
  Herbicidal action against SETVI: 90
Veronica persica [20]; 5 g/ha
  Post-emergence action against VERPE in %: 80%
Veronica persica [20]; 20 g/ha
  Post-emergence action against VERPE in %: 90%
Pharbitis purpurea [21]; 20 g/ha, visual assessment about 3 weeks after treatment
  Post-emergence action against PHBPU in %: 80%
Pharbitis purpurea [21]; [25]
  Herbicidal action against PHBPU: 70
Amaranthus retroflexus [10]; 5 g/ha
  Post-emergence action against AMARE in %: 90%
Amaranthus retroflexus [10]; 20 g/ha
  Post-emergence action against AMARE in %: 100%
Abutilon theophrasti [22]; 5 g/ha
  Post-emergence action against ABUTH: 100%
Abutilon theophrasti [22]; 20 g/ha
  Post-emergence action against ABUTH: 100%
Echinochloa crus-galli [11]; 5 g/ha
  Post-emergence action against ECHCG in %: 80%
Echinochloa crus-galli [11]; 20 g/ha
  Post-emergence action against ECHCG in %: 90%
Matricaria inodora [12]; 5 g/ha
  Post-emergence action against MATIN in %: 80%
Matricaria inodora [12]; 20 g/ha
  Post-emergence action against MATIN in %: 90%
Matricaria inodora [12]; [25]
  Herbicidal action against MATIN: 80
Avena fatua [13]; 5 g/ha
  Post-emergence action against AVEFA in %: 80%
Avena fatua [13]; 20 g/ha
  Post-emergence action against AVEFA in %: 100%
Avena fatua [13]; [25]
  Herbicidal action against AVEFA: 80
Amaranthus retroflexus [14]; 20 g/ha
  Pre-emergence action against AMARE: 100%
Amaranthus retroflexus [14]; 80 g/ha
  Pre-emergence action against AMARE: 100%
Viola tricolor [15]; 20 g/ha
  Pre-emergence action against VIOTR: 90%
Viola tricolor [15]; 80 g/ha
  Pre-emergence action against VIOTR: 100%
Avena fatua [23]; 20 g/ha
  Pre-emergence action against AVEFA: 80%
Avena fatua [23]; 80 g/ha
  Pre-emergence action against AVEFA: 100%
Avena fatua [23]; [26]
  Herbicidal action against AVEFA: 80
Polygonum convolvulus [24]
  Pre-emergence action against POLCO: 80%
Echinochloa crus-galli [16]; 20 g/ha
  Pre-emergence action against ECHCG: 80%
Echinochloa crus-galli [16]; 80 g/ha
  Pre-emergence action against ECHCG: 100%
Echinochloa crus-galli [16]; [26]
  Herbicidal action against ECHCG: 80
Viola tricolor [17]; 5 g/ha
  Post-emergence action against VIOTR in %: 90%
Viola tricolor [17]; 20 g/ha
  Post-emergence action against VIOTR in %: 100%
Viola tricolor [17]; [25]
  Herbicidal action against VIOTR: 80
Lolium rigidum
  Pre-emergence action against LOLRI: 80%
Abutilon theophrasti [18]; 20 g/ha
  Pre-emergence action against ABUTH: 100%
Abutilon theophrasti [18]; 80 g/ha
  Pre-emergence action against ABUTH: 100%
Abutilon theophrasti [18]; [26]
  Herbicidal action against ABUTH: 100
Veronica persica [19]; 80 g/ha
  Pre-emergence action against VERPE: 90%
